These results are taken from patent US20130029983A1, “AMINOTHIENOPYRIDAZINE INHIBITORS OF TAU ASSEMBLY” (priority 2009, published 2013).

In data set [1] the target is T1, K18PL tau (Homo sapiens, UniProt P10636, P618L).
T1 construct: (K18PL; amino acids 244-369); made in house
The experiment in a line: Heparin-induced K18PL tau fibrillization assay monitored by ThT fluorescence. It is filed as biochemical. To be noted: Table 5; for IC50: read-out: K18PL (ThT) IC50 value; for Emax: read-out: K18PL (ThT) maximal percent inhibition achieved in the assay. In a few lines:
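K18PL (30 μM stock, with 0.24 μM Alexa Red-labeled K18PL) plus 40 μM heparin and compound, fibrillized 6 h at 37 °C. Fibrils read by ThT (12.5 μM final, in 100 mM glycine pH 8.5, 1 h RT), ex 450/em 510 nm. Percent inhibition scaled between DMSO wells and non-fibrillizing K18 KD control wells.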

Data set [2] concerns the target T1, K18PL tau. Kind of data set: K18PL tau centrifugation (sedimentation) assay, SDS-PAGE densitometry. It is filed as biochemical. To be noted: SDS-PAGE of soluble and insoluble fractions after centrifugation; for Emax: read-out: K18PL Sed. Assay, maximal percent inhibition of K18PL fibrillization. The procedure, abridged: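 Heparin-induced fibrillization of K18PL tau in sodium acetate buffer with test compound; mixtures were centrifuged and soluble versus insoluble K18PL quantified by SDS-PAGE densitometry. A repeat run centrifuged DMSO- and compound-treated mixtures for 30 min at time zero to remove pelletable material before incubation.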

The target of the next data set is T2, full-length tau (tau40) (Homo sapiens, UniProt P10636).
T2 construct: Full length tau (Tau40; amino acids 1-441); made in house
Kind of data set: Tau40 fibrillization sedimentation assay. It is filed as biochemical. Particulars: SDS-PAGE of soluble and insoluble fractions after centrifugation; for Emax: read-out: Tau40 Sed. Assay, maximal percent inhibition of tau40 fibrillization. The protocol:
The determination of compound-induced effects on the amount of tau that remains soluble upon centrifugation, and EM visualization of tau species following incubation with test compounds, were as previously described (Crowe, A., Ballatore, C., Hyde, E., Trojanowski, J. Q., and Lee, V. M. Y. (2007) Biochemical and Biophysical Research Communications 358, 1-6). […]

The nature of data set [3]: Turbidimetric solubility in fibrillization buffer. In kind it is physicochemical. To be noted: 100 mM NaOAc pH 7.0 fibrillization buffer, 1% DMSO. Here is the method:
Compounds were serially diluted in DMSO to achieve a 2.5 fold dilution series from 20 mM down 8 points to […] on a 384-well master plate (Costar 3672). Aliquots (2 μL) were transferred to a clear 96-well assay plate (Fisher 12-565-501) containing 198 μL fibrillization buffer (100 mM NaOAc pH 7.0) for a 100-fold dilution (200 μM down to 0.3 μM). The plate was incubated with agitation for 2.5 h, and the absorbance at 550, 600, 650 and 700 nm was measured on a Spectramax M5 spectrophotometer. DMSO (1%) in fibrillization buffer served as a control that was subtracted from each data point. The absorbances were averaged and the concentration at which the average absorbance rose above 0.03 AU was an indication of insoluble compound, with solubility limits reported as the previous concentration in the dilution series.

The nature of data set [4]: Brain and plasma drug levels 1 h after i.p. administration (LC-MS/MS). In kind it is in vivo. To be noted: mice; for B/P, ratio between brain/plasma drug level: 1 h after i.p. 5 mg/Kg. Here is the method:
(§1) Test compounds underwent preliminary evaluations of brain penetration, in which 5 mg/Kg of each compound was administered intraperitoneally (i.p.) to a group of three normal mice; drug levels in brain and plasma were determined at a single time-point (1 h) by LC-MS/MS using pre-validated calibration curves. […] However, both esters appeared to have relatively short half-lives in plasma, as indicated by the limited amount of parent drug detected after 1 h from administration of the compounds. […] CNDR-51362 was selected for full PK analysis in which brain and plasma drug levels were determined at six time points (i.e., 30 min, 1 h, 2 h, 4 h, 8 h, and 16 h). The results from this experiment, illustrated in FIG. 6A, confirmed that the total B/P exposure ratio over 16 h is 1.6. […] Finally, in order to investigate the potential for ATPZ congeners to be orally administered, we evaluated brain and plasma level of CNDR-51362 and CNDR-51349 after oral administration of 5 mg/Kg.
(§2) Brain tissue was homogenized in 10 mM ammonium acetate, pH 5.7 (1:2; w/v) using a handheld sonic homogenizer. Plasma was obtained from blood that was collected into a 1.5 mL tube containing 0.5M EDTA solution and subjected to centrifugation for 10 min. at 4500 g at 4° C. Aliquots (50 μL) of brain homogenate or plasma were mixed with 0.2 mL of acetonitrile, centrifuged at 15,000 g, and the resulting supernatants were used for subsequent LC-MS/MS analysis. The LC-MS/MS system was comprised of an Aquity HPLC and a TQ MS that was controlled using MassLynx software (Waters Corporation, Milford, Mass., USA). Compounds were detected using multiple reaction monitoring (MRM) of their specific collision-induced ion transitions. Samples (5 μL) were separated on an Aquity BEH C18 column (1.7 μm, 2.1×50 mm) at 35° C. Operation was in positive electrospray ionization mode, with mobile phase A of 0.1% (v/v) formic acid, and B of either acetonitrile or methanol with 0.1% (v/v) formic acid at a flow rate of 0.6 mL/min using a gradient from 5% to 95% B over two min., followed by wash and re-equilibration steps. The MS was operated with a desolvation temperature of 450° C. and a source temperature of 150° C. Desolvation and source nitrogen gas flows were 900 L/hr and 50 L/hr, respectively. Source and MS/MS voltages were optimized for each compound using the MassLynx auto tune utility. Standard curves were generated for each compound from brain homogenate and plasma samples that had compound added at 4, 40, 400 and 4000 ng/mL and extracted as above. Peak areas were plotted against concentration and a 1/x weighted linear regression curve was used to quantify the tissue-derived samples using the average peak area from triplicate injections.

Data set [5] has as its target T3, K18 tau-mediated tubulin polymerization (Homo sapiens, UniProt P10636).
T3 construct: (K18PL; amino acids 244-369)
Kind of data set: Tau-mediated MT assembly assay (K18 tau, tubulin). It is filed as biochemical, bovine (tubulin). Particulars: 50 μM compound, FIG. 1A.
Method: The effect of compounds on tau-mediated MT assembly was essentially as described (Hong, M., Zhukareva, V., Vogelsberg-Ragaglia, V., Wszolek, Z., Reed, L., Miller, B. I., Geschwind, D. H., Bird, T. D., McKeel, D., Goate, A., Morris, J. C., Wilhelmsen, K. C., Schellenberg, G. D., Trojanowski, J. Q., and Lee, V. M. Y. (1998) Science 282, 1914-1917), adapted to a 384-well plate. […] Lyophilized bovine brain tubulin (Cytoskeleton Inc.) was reconstituted in RAB (100 mM MES, pH 6.9; 1 mM EDTA; 0.5 mM MgSO4) at a concentration of 10 mg/ml. Compounds (50 μM) were added to K18 tau (40 μM) in RAB and pre-incubated at room temperature for 60 minutes. To initiate the MT assembly reaction, 8.25 μl per well of 10 mg/ml tubulin was dispensed on a UV-clear 384-well plate (Corning #3675), followed by 1.0 μl of 100 mM GTP in RAB and 41.25 μl of the compound:tau mixture. […] The plate was incubated in a Spectramax M5 plate reader at 37° C. and the absorbance at 340 nm was read every minute for 45 minutes.

A short description of data set [6]: Full PK analysis and oral administration, brain and plasma levels. It is filed as in vivo, mice. To be noted: oral 5 mg/Kg, FIGS. 6B and 6C; 5 mg/kg. Here is the method:
FIG. 6. (A) Brain and plasma level of F4 (CNDR-51362) after i.v. administration at 2 mg/Kg; (B) Brain and plasma level of F4 (CNDR-51362) after oral administration at 5 mg/Kg; (C) Brain and plasma level of F3 (CNDR-51349) after oral administration at 5 mg/Kg
as §1, §2

T1 sequence (P10636 561-686 P618L): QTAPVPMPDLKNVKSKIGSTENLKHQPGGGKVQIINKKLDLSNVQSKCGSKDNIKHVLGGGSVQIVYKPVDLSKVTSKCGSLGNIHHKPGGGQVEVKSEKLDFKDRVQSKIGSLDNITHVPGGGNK
T2 sequence (P10636 1-441 isoform P10636-8): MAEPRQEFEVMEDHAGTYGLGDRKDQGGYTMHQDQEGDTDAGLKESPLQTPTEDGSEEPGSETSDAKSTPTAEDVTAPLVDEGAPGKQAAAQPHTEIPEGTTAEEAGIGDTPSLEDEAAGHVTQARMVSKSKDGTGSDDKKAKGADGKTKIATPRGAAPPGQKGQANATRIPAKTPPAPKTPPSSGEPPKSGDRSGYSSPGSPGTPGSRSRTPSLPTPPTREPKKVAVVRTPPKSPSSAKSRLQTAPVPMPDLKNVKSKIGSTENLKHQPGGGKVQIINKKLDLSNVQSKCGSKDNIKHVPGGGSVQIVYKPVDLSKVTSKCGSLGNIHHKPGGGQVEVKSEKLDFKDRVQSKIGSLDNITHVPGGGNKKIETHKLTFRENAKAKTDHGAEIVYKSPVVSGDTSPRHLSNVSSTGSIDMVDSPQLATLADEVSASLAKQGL
T3 sequence (P10636 561-686): as the sequence (P10636 561-686 P618L) above, with L58P counted along it

In the case of `CCN(C)C(=O)c1nn(-c2ccc(Cl)cc2)c(=O)c2c(N)scc12` [CNDR-51366, 5-Amino-3-(4-chlorophenyl)-N-ethyl-N-methyl-4-oxo-3,4-dihydrothieno[3,4-d]pyridazine-1-carboxamide], on K18PL tau [1], the IC50 (in general, the concentration at which inhibition is half-maximal) worked out at 6.8 µM and the Emax was 91%. On K18PL tau [2], the Emax amounted to 62%. For the same compound, on full-length tau (tau40), the “Tau40 Sed. Assay, maximal percent inhibition of tau40 fibrillization” value was 58% and the Emax is 50 to 60%. Moreover, in data set [3], the “Water Solubility” value was determined as 80 µM. In data set [4], the “B/P, ratio between brain/plasma drug level” value came to 0.89.

As for `CC(C)NC(=O)c1nn(-c2ccc(Br)cc2)c(=O)c2c(N)scc12` [CNDR-51390, 5-Amino-3-(4-bromophenyl)-N-isopropyl-4-oxo-3,4-dihydrothieno[3,4-d]pyridazine-1-carboxamide], at K18PL tau [1], the 50% inhibitory concentration (IC50) came out at 2.2 µM and the Emax was found to be 89%. The Emax at K18PL tau [2] is 58%. For the same compound, on full-length tau (tau40), the “Tau40 Sed. Assay, maximal percent inhibition of tau40 fibrillization” value came out at 55% and the Emax was in the range of 50 to 60%. Further, in data set [3], the “Water Solubility” value is 13 µM. Further, in data set [4], the “B/P, ratio between brain/plasma drug level” value worked out at 2.0.

`CN(C)c1ccc2nc3ccc(=[N+](C)C)cc-3sc2c1` [methylene blue]: the “Effect on tau-mediated tubulin polymerization (MT formation)” value in data set [5] was “significant diminution”.

With `CNC(=O)c1nn(-c2ccc(Cl)cc2)c(=O)c2c(N)scc12` [CNDR-51367, 5-Amino-3-(4-chlorophenyl)-N-methyl-4-oxo-3,4-dihydrothieno[3,4-d]pyridazine-1-carboxamide], at K18PL tau [1], the IC50 is 4.3 µM. Besides, the Emax was 91% on K18PL tau [1], 68% at K18PL tau [2] and 50 to 60% on full-length tau (tau40). In addition, the “Tau40 Sed. Assay, maximal percent inhibition of tau40 fibrillization” value on full-length tau (tau40) was 51%. The “Water Solubility” value in data set [3] stood at 13 µM. The “B/P, ratio between brain/plasma drug level” value in data set [4] is 0.49.

In the case of `Nc1scc2c(C(=O)O)nn(-c3ccc(Cl)cc3)c(=O)c12` [CNDR-51348, 5-Amino-3-(4-chlorophenyl)-4-oxo-3,4-dihydrothieno[3,4-d]pyridazine-1-carboxylic acid], the melting point (as a rule, the temperature of the solid-liquid transition) was over 300 °C. Besides, at K18PL tau [1], the half-maximal inhibitory concentration (IC50) is 1.6 µM and the Emax is 87%. Besides, the Emax on K18PL tau [2] is 79%. Besides, at full-length tau (tau40), the “Tau40 Sed. Assay, maximal percent inhibition of tau40 fibrillization” value amounted to 62% and the Emax fell in the range of 50 to 60%. Further, in data set [4] (i.p. 5 mg/Kg, 1 h), the Brain penetration result is given as “lack of brain penetration”. For the same compound, the “B/P, ratio between brain/plasma drug level” value in data set [4] was 0.023.

`CC(C)NC(=O)c1nn(-c2ccc(Cl)cc2)c(=O)c2c(N)scc12` [CNDR-51349, 5-Amino-3-(4-chlorophenyl)-N-isopropyl-4-oxo-3,4-dihydrothieno[3,4-d]pyridazine-1-carboxamide]: at K18PL tau [1], the half-inhibitory concentration (IC50) came out at 0.7 µM and the Emax was 88%. Besides, the Emax on K18PL tau [2] was 65%. For the same compound, at full-length tau (tau40), the “Tau40 Sed. Assay, maximal percent inhibition of tau40 fibrillization” value is listed as 45% and the Emax was 50 to 60%. For the same compound, in data set [3], the “Water Solubility” value is 32 µM. The “B/P, ratio between brain/plasma drug level” value in data set [4] is 2.2. The compound also displayed a Brain level in data set [4] (1 h after i.p. 5 mg/kg, listed as CNDK-51349, 5 mg/kg) of 1100 ng/g. Also, the “Brain concentration after oral administration” value in data set [6] is recorded as “significant brain concentrations”.

For `CN(C)C(=O)c1nn(-c2ccc(Cl)cc2)c(=O)c2c(N)scc12` [CNDR-51361, 5-Amino-3-(4-chlorophenyl)-N,N-dimethyl-4-oxo-3,4-dihydrothieno[3,4-d]pyridazine-1-carboxamide], at K18PL tau [1], the IC50 amounted to 5.3 µM and the Emax came out at 88%. For the same compound, the “K18PL Sed. Assay, maximal percent inhibition of K18PL fibrillization” value on K18PL tau [2] was 69%. For the same compound, on full-length tau (tau40), the “Tau40 Sed. Assay, maximal percent inhibition of tau40 fibrillization” value is 69% and the Emax was in the range of 50 to 60%. The “Water Solubility” value in data set [3] is 32 µM. Further, the “B/P, ratio between brain/plasma drug level” value in data set [4] is on record as 0.44.

Compound `CC(C)OC(=O)c1nn(-c2ccc(Cl)cc2)c(=O)c2c(N)scc12` [CNDR-51371, Isopropyl 5-amino-3-(4-chlorophenyl)-4-oxo-3,4-dihydrothieno[3,4-d]pyridazine-1-carboxylate] registered a melting point of 118 to 120 °C. Further, on K18PL tau [1], the half-inhibitory concentration (IC50) worked out at 1.5 µM and the Emax stood at 81%. Moreover, the Emax on K18PL tau [2] stood at 44%. On full-length tau (tau40), the “Tau40 Sed. Assay, maximal percent inhibition of tau40 fibrillization” value was found to be 61% and the Emax was 50 to 60%. Moreover, in data set [3], the “Water Solubility” value is 32 µM.

For the compound `CCNC(=O)c1nn(-c2ccc(Cl)cc2)c(=O)c2c(N)scc12` [CNDR-51365, 5-Amino-3-(4-chlorophenyl)-N-ethyl-4-oxo-3,4-dihydrothieno[3,4-d]pyridazine-1-carboxamide], the IC50 at K18PL tau [1] is 5.6 µM. The Emax at K18PL tau [1] was 91%; on K18PL tau [2], 94%; at full-length tau (tau40), 50 to 60%. Further, at full-length tau (tau40), the “Tau40 Sed. Assay, maximal percent inhibition of tau40 fibrillization” value amounted to 57%. Moreover, the “Water Solubility” value in data set [3] worked out at 32 µM. Moreover, in data set [4], the “B/P, ratio between brain/plasma drug level” value came out at 1.8.
